The values below come from patent US5216001A, “Indole derivatives” (H. Lunbeck A/S, priority 1990, dated 1993).

Assay [1] addresses T1, DA D-2 (Rattus norvegicus, UniProt P61169).
T1 construct: Male Wistar rats (Mol:Wist) weighing about 200 g at the time of operation are used; from tissue; host or cells: living male Wistar (Mol:Wist) rats with unilateral 6-OHDA lesions (in vivo, endogenous receptor)
Nature of the assay: antagonism of pergolide-induced circling behaviour in rats with unilateral 6-OHDA lesions. Particulars: sc. It counts as in vivo. The protocol:
ANTAGONISM OF PERGOLIDE-INDUCED CIRCLING BEHAVIOUR IN RATS WITH UNILATERAL 6-OHDA LESIONS
Dopamine (DA) D-2 agonists induce contralateral circling behaviour in rats with 6-OHDA lesions. Pergolide-induced circling is antagonized by DA D-2 antagonists.
Male Wistar rats (Mol:Wist) weighing about 200 g at the time of operation are used. Unilateral lesions are made in pentobarbital anaesthetized rats by injection of 6-OHDA. HCl 9.7 μg/μl (equivalent to 8 μg free base) per 4 min. into the rostral tip of the substantia nigra. The saline solution contains ascorbic acid 0.2 mg/ml, is bubbled with N2 and is kept ice-cold. The experiments are done when stable contralateral circling responses to pergolide (0.05 μmol/kg, s.c.) are obtained. The circling response is measured in rotometer bowls. Only rats showing more than 400 complete turns in 2 hrs control session are used. Dose-response curves are obtained by alternating test and control sessions on a weekly basis. The antagonists are injected s.c. 2 hrs before the agonist. The effect of individual doses of test drugs is calculated as per cent of the mean effect of control sessions one week before and one week after the test session for each rat. ED50 values are calculated by log-probit analysis. Four to eight rats are used at each dosage.

The target of assay [2] is T2, 5-HT2 (Rattus norvegicus, UniProt P14842).
T2 construct: Four rats, male Wistar (Mol:Wist) SPF rats weighing 170-240 g; from tissue; host or cells: living male Wistar (Mol:Wist) SPF rats (in vivo, endogenous receptor)
Put plainly: quipazine inhibition (quipazine-induced head twitches in rats). Type of assay: in vivo. Here is the method: Quipazine is a 5-HT2 agonist, which induces head twitches in rats. The test is a test for 5-HT2 -antagonistic effect testing the ability to inhibit head twitches. The method and test results for some reference substances are published by Arnt et al. (Drug Development Research, 16, 59-70, 1989).
Test substance is injected s.c. 2 hrs before or p.o. 24 hrs before quipazine administration (6.8 mg/kg, s.c., dimaleate). Four rats, male Wistar (Mol:Wist) SPF rats weighing 170-240 g, are used at each dose level. A control group is included each test day. By repeated testing (2, 24 hrs) the control group is the same, however. After quipazine administration the rats are individually placed in the observation cages and head twitches are counted in an observation period of 30-40 min. after injection of quipazine.
Total number of head twitches in each group is calculated and the result for each dose is expressed as per cent of the response in the control group. ED50 values are calculated by log-probit analysis. The test must be repeated if the average number of head twitches is lower than 9 in the control group.

For assay [3], the target named is α1 adrenoceptors. Nature of the assay: inhibition of 3H-prazosin binding to α1 adrenoceptors in rat brain in vitro. Particulars: 3H-prazosin 0.25 nM, rat brain membranes, read-out: Binding IC50, 3H Praz. Here is the method:
INHIBITION OF ^3 H-PRAZOSIN BINDING TO α1 ADRENOCEPTORS IN RAT BRAIN IN VITRO
Method and results in Hyttel and Larsen, J. Neurochem, 44, 1615-1622, 1985; Skarsfeldt and Hyttel, Eur. J. Pharmacol. 125, 323-340, 1986.
Male Wistar (Mol:Wist) rats (125-200 g) are sacrificed and brain tissue is dissected and weighed. The tissue is homogenized (Ultra Turrax, 10 sec.) in 10 ml of ice-cold […] Tris buffer pH 7.7 (at 25° C.). The homogenate is centrifuged twice at 20,000 g for 10 min. at 4° C. with rehomogenization of the pellet in 10 ml ice-cold buffer. The final pellet is homogenized in 400 vol (w/v) ice-cold buffer.
Incubation tubes kept on ice in triplicate receive 100 μl of drug solution in water (or water for total binding) and 4000 μl of tissue suspension (final tissue content corresponds to 10 mg original tissue). The binding experiment is initiated by addition of 100 μl of ^3 H-Prazosin (final concentration 0.25 nM) and by placing the tubes in a 25° C. water bath. After incubation for 20 min. the samples are filtered under vacuum (0-50 mBar) through Whatman GF/F filters (25 mm). The tubes are rinsed with 5 ml ice-cold buffer which then are poured on the filters. Thereafter, the filters are washed with 5 ml of buffer. The filters are placed in counting vials and 4 ml of appropriate scintillation fluid (e.g. Picofluor™15) are added. After shaking for 1 h and storage 2 hrs in the dark the content of radioactivity is determined by liquid scintillation counting. Specific binding is obtained by subtracting the nonspecific binding in the presence of 1 μM of Prazosin.
For determination of the inhibition of binding five concentrations of drugs covering 3 decades are used.
The measured cpm are plotted against drug concentration on semilogarithmic paper and the best fitting S-shaped curve is drawn. The IC50 value is determined as the concentration at which the binding is 50% of the total binding in control samples minus the nonspecific binding in the presence of 1 μM of Prazosin. ^3 H-Prazosin=[furoyl-5-^3 H]-Prazosin from New England Nuclear, specific activity approximately 20 Ci/mmol.

Setting [4] is: po, 24 h, read-out: Quipazine inhibition ED50, 24h (po).
Where [5] appears, read: sc, 2 h, read-out: Quipazine inhibition ED50, 2h (sc).
Setting [6] is: read-out: Pergolide rot. inhibition ED50, 2h (sc), 6-OHDA lesions, s.c., 2 h before pergolide.

Where two headings read alike, the source gives them in different places.

T2 sequence (P14842 whole entry): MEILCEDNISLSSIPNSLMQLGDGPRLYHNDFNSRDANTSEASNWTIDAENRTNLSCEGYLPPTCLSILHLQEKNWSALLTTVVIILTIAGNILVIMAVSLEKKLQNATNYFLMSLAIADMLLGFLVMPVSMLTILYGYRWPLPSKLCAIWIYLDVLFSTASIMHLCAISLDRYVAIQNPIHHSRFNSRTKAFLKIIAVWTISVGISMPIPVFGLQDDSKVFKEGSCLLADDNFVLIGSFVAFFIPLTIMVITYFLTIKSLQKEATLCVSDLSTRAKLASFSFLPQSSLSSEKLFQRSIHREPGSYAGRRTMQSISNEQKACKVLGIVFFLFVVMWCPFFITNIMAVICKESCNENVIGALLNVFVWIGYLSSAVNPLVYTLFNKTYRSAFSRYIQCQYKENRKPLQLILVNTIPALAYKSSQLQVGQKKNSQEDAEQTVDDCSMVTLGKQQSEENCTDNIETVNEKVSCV
T1 sequence (P61169 whole entry): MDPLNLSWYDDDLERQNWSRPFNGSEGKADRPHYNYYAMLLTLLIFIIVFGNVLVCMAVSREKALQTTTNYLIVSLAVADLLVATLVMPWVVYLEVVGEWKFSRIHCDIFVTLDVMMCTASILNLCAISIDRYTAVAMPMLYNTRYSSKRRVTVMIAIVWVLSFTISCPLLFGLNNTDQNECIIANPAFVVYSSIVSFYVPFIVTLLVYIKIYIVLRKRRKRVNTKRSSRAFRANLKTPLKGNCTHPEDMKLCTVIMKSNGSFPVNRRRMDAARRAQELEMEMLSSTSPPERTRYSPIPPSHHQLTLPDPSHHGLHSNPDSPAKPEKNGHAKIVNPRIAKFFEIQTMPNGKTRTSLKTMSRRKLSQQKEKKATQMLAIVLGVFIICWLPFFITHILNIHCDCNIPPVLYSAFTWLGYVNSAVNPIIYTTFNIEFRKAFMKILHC

As to `CC(C)N1CCN(CCN2CCC(c3cn(-c4ccc(F)cc4)c4cc(Cl)ccc34)CC2)C1=O` [Compound 4a, 6-chloro-1-(4-fluorophenyl)-3-[1-[2-[3-(2-propyl)-2-imidazolidinon-1-yl]ethyl]-4-piperidyl]-1H-indole], the ED50 was > 17 µmol/kg in assay [1] (2 h, read-out: Pergolide rot. inhibition ED50, 2h (sc)); 0.06 µmol/kg in assay [2] (setting [4]); 0.11 µmol/kg in assay [2] (setting [5]). The IC50 in assay [3] was determined as 0.07 µM.
Regarding `Cc1ccc2c(C3CCN(CCN4CCNC4=O)CC3)cn(-c3ccc(F)cc3)c2c1` [Compound 4g, 1-(4-fluorophenyl)-3-[1-[2-(2-imidazolidinon-1-yl)ethyl]-4-piperidyl]-6-methyl-1H-indole], the ED50 in assay [1] (setting [6]) was > 24 µmol/kg; in assay [2] (setting [4]), 0.04 µmol/kg; in assay [2] (setting [5]), 0.02 µmol/kg. The IC50 in assay [3] turned out to be 0.024 µM.
Taken in the same sequence, the figures for `Cc1ccc2c(C3CCN(CCN4CCN(C(C)C)C4=O)CC3)cn(-c3ccc(F)cc3)c2c1` [Compound 5a, 1-(4-fluorophenyl)-6-methyl-3-[1-[2-[3-(2-propyl)-2-imidazolidinon-1-yl]ethyl]-4-piperidyl]-1H-indole] were > 18 µmol/kg, 0.11 µmol/kg, 0.04 µmol/kg and 0.085 µM.
For `OCCN1CCN(c2cn(-c3ccc(F)cc3)c3ccc(C(F)(F)F)cc23)CC1` [Lu 21-152, 1-(4-fluorophenyl)-3-[4-(2-hydroxyethyl)-1-piperazinyl]-5-trifluoromethyl-1H-indole, reference compound], the ED50 in assay [1] (setting [6]) was determined as 0.02 µmol/kg. Besides, the “Quipazine inhibition ED50, 2h (sc)” value in assay [2] (s.c., 2 h before quipazine) is 0.02 µmol/kg. Moreover, in assay [3], the IC50 was found to be 0.0076 µM.
